Measured values reported in ChEMBL document CHEMBL1201862, “PubChem BioAssay data set” (2004).
One block for each compound: values may come before it. The source made the active and inactive calls.

Columns and labels:
[1] = viability of uninfected HEp-2 cells – cell-based, HTS, cytotoxicity control for RSV inhibitor project, dose response (AID 2410); format: functional; conditions: human respiratory syncytial virus
[2] = inhibition of ADAM10 peptide cleavage – biochemical, FRET peptide substrate, recombinant human ADAM10, selectivity assay for ADAM17 exosite inhibitor project, dose response (AID 743259);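 further: ADAM10 enzyme cleaving a FRET peptide substrate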
[3] = target: Disintegrin and metalloproteinase domain-containing protein 17 (Homo sapiens, UniProt P78536); test: exosite inhibitors of ADAM17, dose response, biochemical (AID 743260)
Prothrombin = Prothrombin (Homo sapiens, UniProt P00734); test: Thrombin 1536 HTS Dose Response Confirmation. [Related pubchem assays: 1046 (Thrombin 1536 HTS; hits were confirmed in this assay)]; format: functional
[4] = target: T1, Heat shock factor protein 1 (Mus musculus, UniProt P38532); test: decrease of HSF1-responsive luciferase luminescence – cell-based, NIH3T3, dose retest, confirmation (AID 2382); format: functional;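 further: NIH3T3 fibroblasts with HSF1-driven luciferase reporter stressed by proteasome inhibitor MG132; luminescence from HSF1-driven luciferase expression after 8 hours of MG132 stress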
T1 sequence (P38532 whole entry): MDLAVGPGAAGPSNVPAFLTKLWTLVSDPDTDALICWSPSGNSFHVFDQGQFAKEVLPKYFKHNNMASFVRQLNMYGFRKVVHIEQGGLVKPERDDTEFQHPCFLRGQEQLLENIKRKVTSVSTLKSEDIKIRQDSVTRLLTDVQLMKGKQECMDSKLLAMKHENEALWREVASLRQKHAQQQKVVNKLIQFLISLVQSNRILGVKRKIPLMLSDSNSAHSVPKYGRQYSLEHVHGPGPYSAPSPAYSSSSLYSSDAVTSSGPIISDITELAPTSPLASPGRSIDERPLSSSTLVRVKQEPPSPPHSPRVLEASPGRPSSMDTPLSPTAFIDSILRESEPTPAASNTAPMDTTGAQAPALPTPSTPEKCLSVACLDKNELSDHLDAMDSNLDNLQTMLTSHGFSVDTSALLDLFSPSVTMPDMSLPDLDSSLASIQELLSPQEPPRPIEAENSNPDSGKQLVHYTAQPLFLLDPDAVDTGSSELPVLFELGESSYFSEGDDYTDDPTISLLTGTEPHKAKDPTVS

[5] = A549 cell cytotoxicity, dose response, cytotoxicity control, plate reader, cherry-pick, antagonist series (AID 743412); format: functional, cell-based
[6] = blockade of melanocortin 4 receptor signaling – cell-based, plate reader, cherry pick, counter-screen for LGR2 antagonist project, dose response (AID 743444); format: functional;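 further: transfected HEK 293 cells stimulated with alpha-MSH peptide; potency of inhibitors of the alpha-MSH evoked signal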
[7] = blockers of bursicon-stimulated LGR2 cAMP reporter – cell-based, HEK293, CRE-luciferase reporter, cherry pick, set 2, dose response (AID 743343); format: functional;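 further: transfected cells were stimulated with diluted bursicon conditioned medium after compound addition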
H9c2 = test: cells; format: functional, cell-based; conditions: Rattus norvegicus, H9c2, Myocardium;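 further: confirmatory concentration-response retest of ultra-high-throughput screening hits for modulation of myocardial damage; cell death induced by hydrogen peroxide oxidative stress; compound pretreatment for 60 min then peroxide exposure for 2 h; potency is for protecting the cells against peroxide damage rather than for killing them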
[8] = target: T2, Methionyl-tRNA synthetase, putative (Trypanosoma brucei brucei, UniProt Q38C91); format: functional, Trypanosoma brucei brucei strain 927/4 GUTat10.1
T2 sequence (Q38C91 whole entry): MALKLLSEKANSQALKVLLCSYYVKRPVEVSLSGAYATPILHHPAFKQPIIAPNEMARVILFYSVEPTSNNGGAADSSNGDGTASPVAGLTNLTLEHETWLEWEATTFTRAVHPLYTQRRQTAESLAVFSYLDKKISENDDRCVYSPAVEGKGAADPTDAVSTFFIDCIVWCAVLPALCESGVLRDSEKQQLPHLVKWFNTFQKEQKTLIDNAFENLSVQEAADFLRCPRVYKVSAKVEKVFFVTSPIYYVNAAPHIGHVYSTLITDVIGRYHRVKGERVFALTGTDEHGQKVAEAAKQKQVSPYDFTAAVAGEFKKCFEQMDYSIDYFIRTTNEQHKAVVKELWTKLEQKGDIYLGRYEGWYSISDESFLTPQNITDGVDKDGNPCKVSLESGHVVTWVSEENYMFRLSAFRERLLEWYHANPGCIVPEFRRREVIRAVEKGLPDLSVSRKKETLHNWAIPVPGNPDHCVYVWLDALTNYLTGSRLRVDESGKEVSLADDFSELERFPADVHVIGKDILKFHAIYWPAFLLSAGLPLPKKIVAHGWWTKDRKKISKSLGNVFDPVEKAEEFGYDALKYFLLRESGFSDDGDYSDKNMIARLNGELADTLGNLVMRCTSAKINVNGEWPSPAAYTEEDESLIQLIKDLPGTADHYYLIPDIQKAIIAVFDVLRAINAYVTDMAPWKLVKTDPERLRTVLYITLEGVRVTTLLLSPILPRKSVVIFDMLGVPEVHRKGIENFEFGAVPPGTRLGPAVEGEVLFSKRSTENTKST

[9] = target: T2, Methionyl-tRNA synthetase, putative; format: functional, Trypanosoma brucei brucei strain 927/4 GUTat10.1; remark: listed apart in the source
[10] = Counterscreen for inhibitors of Trypanosoma brucei methionyl tRNA synthetase (MetRS): Luminescence-based cell-based high throughput dose response assay to identify compounds that are cytotoxic to Jurkat human T lymphocyte cells.; format: functional

Chain of Disintegrin and metalloproteinase domain-containing protein 17 (P78536 whole entry, the tested form may be a part): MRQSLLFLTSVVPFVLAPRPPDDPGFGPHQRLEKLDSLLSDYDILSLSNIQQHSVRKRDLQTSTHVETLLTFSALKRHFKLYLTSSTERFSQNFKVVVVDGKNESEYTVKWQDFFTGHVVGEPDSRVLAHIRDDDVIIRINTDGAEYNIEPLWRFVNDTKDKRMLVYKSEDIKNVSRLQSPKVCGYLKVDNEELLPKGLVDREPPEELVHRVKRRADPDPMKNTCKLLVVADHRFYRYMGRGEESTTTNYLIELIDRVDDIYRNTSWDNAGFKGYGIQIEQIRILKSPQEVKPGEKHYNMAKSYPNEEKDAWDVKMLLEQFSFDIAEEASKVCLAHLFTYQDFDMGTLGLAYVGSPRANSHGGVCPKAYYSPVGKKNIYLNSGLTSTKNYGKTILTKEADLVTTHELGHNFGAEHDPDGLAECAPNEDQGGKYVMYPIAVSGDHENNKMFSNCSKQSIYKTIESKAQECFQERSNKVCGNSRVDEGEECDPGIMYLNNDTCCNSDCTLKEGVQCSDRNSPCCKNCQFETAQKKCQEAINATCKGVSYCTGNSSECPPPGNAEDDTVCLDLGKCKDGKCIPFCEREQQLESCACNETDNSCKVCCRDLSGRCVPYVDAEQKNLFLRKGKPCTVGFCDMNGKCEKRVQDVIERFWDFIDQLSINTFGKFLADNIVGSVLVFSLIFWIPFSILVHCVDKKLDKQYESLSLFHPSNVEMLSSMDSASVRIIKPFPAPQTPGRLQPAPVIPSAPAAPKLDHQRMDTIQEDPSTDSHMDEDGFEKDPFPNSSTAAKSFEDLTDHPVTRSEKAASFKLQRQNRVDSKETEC

SMILES: COC(=O)c1ccc(Cn2c(CN3CCOCC3)nc3ccccc3c2=O)o1
IC50 (cells): 17.4 µM (active)

SMILES: Cc1ccc(S(=O)(=O)N2CCN(CCO)CC2)cc1-c1nnc2c3ccccc3c(C)nn12
IC50 (cells): > 50 µM (active)

SMILES: COc1ccccc1-n1c(C)cc(/C=C2\C(=N)N3N=C(CC(=O)N4CCOCC4)SC3=NC2=O)c1C
CC50 [1]: 38.3 µM (active) | IC50 (cells): 24.1 µM (active)

IC50 [3]: > 69.5 µM (inactive)
SMILES: O=C(COC(=O)c1cccc(NS(=O)(=O)/C=C/c2ccccc2)c1)Nc1ccccc1OC(F)F
IC50 [2]: 36 µM (inactive)

IC50 (Prothrombin): > 50 µM (not active)
SMILES: Cc1nn(C)cc1CN1CCC(CO)(CCOc2ccccc2)CC1

IC50 [3]: > 69.5 µM (inactive)
SMILES: Cc1csc(-c2cnn(-c3ccccc3)c2NC(=O)c2ccc(C(F)(F)F)cc2)n1
IC50 [2]: 24.7 µM (inactive)

EC50 [4]: > 195 µM (not active) | IC50 (Prothrombin): > 50 µM (not active)
SMILES: O=C(COc1ccccc1C(=O)O)Nc1ccc(SC(F)F)cc1

SMILES: Cc1ccc(C)c(S(=O)(=O)N(C(=O)c2ccncc2)c2ccc(OC(=O)c3ccncc3)cc2)c1
AC50 [5]: > 52 µM (inactive) | AC50 [6]: 1.9 µM (active) | AC50 [7]: 4.05 µM (active) | IC50 (H9c2): > 79 µM (inactive)

SMILES: Cc1cc(C)c2c(-n3cccc3)c(C(=O)NNS(=O)(=O)c3ccc(Cl)cc3)sc2n1
CC50 [1]: 37.1 µM (active) | IC50 (cells): 40.2 µM (active)

IC50 (Prothrombin): > 50 µM (not active)
SMILES: CC(C)Oc1ccc(N2CC(C(=O)NC3=NCCS3)CC2=O)cc1 (stereo unspecified)

SMILES: COC(=O)c1sc(-c2ccc(Cl)cc2)cc1NC(=O)CSCC(=O)O
IC50 [8]: 18.2 µM (inactive) | IC50 [9]: 22.5 µM (inactive) | IC50 [10]: 83.3 µM (inactive)
